In one assay the test system is Staphylococcus aureus. Particulars: reported results; cited from earlier work.
Assay [1] relates to recombinant E. coli strain TV 1048. Briefly: Bioluminescence method (light-off response) with recombinant E. coli strain TV 1048. In kind it is cell-based. Particulars: at 5 min; by interpolation of bioluminescence against concentration curves.

The values below come from patent US6440405B1, “Quaternary ammonium functionalized dendrimers and methods of use therefor” (priority 1999, dated 2002).

Take `CCCCCCCCCCCC[N+](C)(C)C.[Cl-]` [DTAC, n-dodecyltrimethyl ammonium chloride]: the “effectiveness against S. aureus compared with D4ClNC12 (in words)” value in the assay with Staphylococcus aureus is given as “Somewhat less effective”. Further, the “EC50 (concentration causing a 50% reduction of the bioluminescence)” value in assay [1] is on record as “about 2000 ppm”.
